Measurements from patent US20130266526A1, “DIHYDROXYFUMARIC ACID DERIVATIVES AND THE USE THEREOF FOR SKIN LIGHTENING” (MERCK PATENT GMBH, priority 2010, published 2013).
Entries after “also recorded” stand apart in the source; their conditions may differ.

Experiments:
[1] = tested on: B16V mouse melanoma cells; assay: B16 V mouse melanoma cell test (melanin content after alpha-MSH stimulation); type: cell-based; details: for Relative melanin content in %: DMSO control = 100, alpha-MSH 10^-8 M, absorption 405 nm
Method: B16V mouse melanoma cells (manufacturer: DSMZ; Article No.: ACC370) are transferred into RPMI medium (Invitrogen, Article No.: 31870), to which 10% of FBS (foetal bovine serum; Invitrogen, Article No.: 10499044), 2 mM L-glutamine (Invitrogen, Article No: 25030) and 1 mM sodium pyruvate (Invitrogen, Article No.: 11360) had additionally been added, and incubated at 37° C. and 5% CO2 for 72 h. The medium is separated off, and the cells are washed once with 10 ml of DPBS (Dulbecco's phosphate-buffered salines; Invitrogen, Article No.: 14190), and the medium is subsequently removed by suction. 1 ml of HyQtase cell detachment solution (Hyclone, Article No.: SV30030.01) is added to the cells. The bottle is swirled a number of times, and the HyQtase cell detachment solution is subsequently removed by suction. The cells are then incubated in the incubator at 37° C. and 5% CO2 for 5 min. The cells are taken up in the modified RPMI medium (see above), and the cell count is determined. To this end, the cells are stained with Trypan Blue and counted in a Neubauer counting chamber. The cells are subsequently sown out again in the modified RPMI medium (see above) in a defined cell count of 80,000 cells per well (6-well clear plate, TCT, PS (Nunc)).
The cells are incubated at 37° C. and 5% CO2 for 24 h, the medium is then removed. 1980 μl of the dilution of the respective substance to be tested are subsequently added. For this substance dilution, the substance is dissolved in DMSO and subsequently filtered through a sterile filter (0.2 μm, Millipore, Article No. SLLG013SL). The solution is then diluted with the modified RPMI medium (see above, but in this case the FBS content is only 5%) in such a way that the final concentration of the substance dilution has the desired final concentration as shown in Table 1.
20 μl of an alpha-MSH solution (alpha-melanocyte-stimulating hormone, DMSO, Sigma, Article No.: D2650) are then added, so that the alpha-MSH concentration in the well is 10^−8 M. The plate is subsequently incubated again at 37° C. and 5% CO2 for 24 h. The process described in this section is repeated a further twice in total.
After the final incubation period, the medium is removed by suction, and the cells are washed with 1000 μl of DPBS (Invitrogen, Article No.: 14190). The medium is again removed by suction. […] of HyQtase cell detachment solution (Hyclone, Article No.: SV30030.01) are added to the cells. The 6-well plate is swirled a number of times, and the HyQtase cell detachment solution is subsequently removed by suction. The cells are then incubated in the incubator at 37° C. and 5% CO2 for 5 min. The cells are taken up in 1.5 ml of DPBS (Invitrogen, Article No.: 14190) and transferred into a cup (SARSTEDT, Ref. 72.692.005). The cell count is subsequently determined. To this end, the cells are stained with Trypan Blue and counted in a Neubauer counting chamber. The cells centrifuged for 1 min at 3500 g. The pellets obtained are photographed, and the supernatant is subsequently removed by suction. The pellets are dissolved in 1 ml of 1N NaOH at 80° C. for 1 h and then cooled to RT. Four times 200 μl per cup (as quadruple determination) are subsequently pipetted into a 96-well plate (VWR, Article No.: 4100636981), and the absorption at a wavelength of 405 nm is determined (Safire, Tecan). The content of melanin can be determined in this way by means of a calibration line.

melanin = details: substance alone; Example 5 of WO 01/66105 A1; cited from earlier work

## O=C1O[C@H]([C@@H](O)CO)C(O)=C1O [Ascorbic acid]
[1]; 3 mM
  Relative melanin content in %: 77.4%

## CC(O)C(=O)O (stereo not shown) [Lactic acid]
melanin
  melanin-reducing action: 40%
[1]; 11.1 mM
  Relative melanin content in %: 57.8%

## O=c1cc(CO)occ1O [Kojic acid]
[1]; 1 mM
  Relative melanin content in %: 59%

## O.O.O=C(O)/C(O)=C(\O)C(=O)O [Dihydroxyfumaric acid dihydrate]
[1]; 0.5 mM
  Relative melanin content in %: 13.4%
[1]; comparison of the working example (Table 1), dihydrate
  skin-lightening action in comparison with known active compounds: exceeds the action of lactic acid, glycolic acid and even kojic acid by a multiple; also recorded: higher compared with the hydroxy acids lactic acid and glycolic acid

## O=C(O)CO [Glycolic acid]
[1]; 0.5 mM
  Relative melanin content in %: 67.3%
